The values that follow come from patent EP0325936A2, “Aminoguanidine derivatives and inhibitory agents on maillard reaction containing them as active ingredients” (ONO PHARMACEUTICAL CO., LTD., priority 1988, dated 1989).

This assay has as its system Maillard reaction. The assay is described as follows: Inhibitory effect on Maillard reaction in vitro (BSA + glucose incubation, fluorescence). Conditions: 6mM test compound; 100 mg/ml bovine serum albumin (BSA), 200 mM glucose, 0.5 M phosphatic buffer solution (pH 7.38), incubated for a week at 37°C; fluorescence excitation 360nm, emission 450 nm. In kind it is biochemical. The protocol: An inhibitory activity on Maillard reaction of the compounds of the present invention was confirmed by the screening system mentioned below.
In order to evaluate the inhibitory effect on Maillard reaction in vitro, of the compounds in the present invention, the measurement was carried out under conditions described below.
100 mg/ml bovine serum albumin (BSA), 200 mM glucose and 6mM test compound were dissolved in 0.5 M phosphatic buffer solution (pH 7.38), and the mixture was incubated for a week at 37°C.
After incubation, the incubated medium was diluted 100 times with the same phosphatic buffer solution, and the fluorescence spectrum was measured at the excitation maximum of 360nm and the emission maximum of 450 nm.
Inhibition percentage of the test compounds was calculated by the following equation: [formula] ΔI₁ : fluorescence of test compounds ΔI₂ : fluorescence of (test compounds + glucose), ΔI₃ : fluorescence of (test compounds + BSA), ΔI₄ : fluorescence of (test compounds + BSA + glucose), ΔI : fluorescence of (BSA + glucose)
Consider `COc1ccc(NNC(=N)N)cc1.O=S(=O)(O)O` [1(d), 1-(4-methoxyanilino) guanidine sulfate], for which the “Inhibitory effect (%) (6mM)” value worked out at 100%.

Consider `N=C(N)NNc1ccc(F)cc1.O=S(=O)(O)O` [1(c), 1-(4-fluoroanilino) guanidine sulfate], for which the “Inhibitory effect (%) (6mM)” value worked out at 100%.

Turning to `N=C(N)NNc1ccccc1.O=S(=O)(O)O` [Example 1, 1-anilinoguanidine sulfate], the “Inhibitory effect (%) (6mM)” value was 79%.

Consider `N=C(N)NNc1cccc([N+](=O)[O-])c1.O=S(=O)(O)O` [1(j), 1-(3-nitroanilino) guanidine sulfate], for which the “Inhibitory effect (%) (6mM)” value is 94%.

As for `N=C(N)NNc1ccccc1Cl.O=S(=O)(O)O` [Example 1(a), 1-(2-chloroanilino) guanidine sulfate], the “Inhibitory effect (%) (6mM)” value is listed as 79%.

For the molecule `Cc1ccc(NNC(=N)N)cc1.O=S(=O)(O)O` [1(h), 1-(4-methylanilino) guanidine sulfate], the “Inhibitory effect (%) (6mM)” value was 83%.

Regarding `N=C(N)NNc1ccc(Cl)cc1.O=S(=O)(O)O` [1(b), 1-(4-chloroanilino) guanidine sulfate], the “Inhibitory effect (%) (6mM)” value stood at 100%.
